Read-outs that look alike come from different tables or passages of the source. Square brackets hold non-standard residues; d marks the D form. Ends that are not written are not given here. Peptide text beside a SMILES is read from it. * marks the point of attachment. His(Trt) = N[C@@H](Cc1cn(C(c2ccccc2)(c2ccccc2)c2ccccc2)cn1)C(=O)O; His(τ-CHPh2) = N[C@@H](Cc1cn(C(c2ccccc2)c2ccccc2)cn1)C(=O)O; dPhe(4-CF3) = N[C@H](Cc1ccc(C(F)(F)F)cc1)C(=O)O; Tyr(3-NH2) = Nc1cc(C[C@H](N)C(=O)O)ccc1O; dPhe(4-Cl) = N[C@H](Cc1ccc(Cl)cc1)C(=O)O; dPhe(4-Me) = Cc1ccc(C[C@@H](N)C(=O)O)cc1; Dmt = Cc1cc(O)cc(C)c1C[C@H](N)C(=O)O; Benzhydryl = c1ccc(C(c2ccccc2)*)cc1; Octanoyl = CCCCCCCC(=O)*

Series [1] has as its target T1, GPR39 (Homo sapiens, UniProt O43194).
T1 sequence (O43194 1-453): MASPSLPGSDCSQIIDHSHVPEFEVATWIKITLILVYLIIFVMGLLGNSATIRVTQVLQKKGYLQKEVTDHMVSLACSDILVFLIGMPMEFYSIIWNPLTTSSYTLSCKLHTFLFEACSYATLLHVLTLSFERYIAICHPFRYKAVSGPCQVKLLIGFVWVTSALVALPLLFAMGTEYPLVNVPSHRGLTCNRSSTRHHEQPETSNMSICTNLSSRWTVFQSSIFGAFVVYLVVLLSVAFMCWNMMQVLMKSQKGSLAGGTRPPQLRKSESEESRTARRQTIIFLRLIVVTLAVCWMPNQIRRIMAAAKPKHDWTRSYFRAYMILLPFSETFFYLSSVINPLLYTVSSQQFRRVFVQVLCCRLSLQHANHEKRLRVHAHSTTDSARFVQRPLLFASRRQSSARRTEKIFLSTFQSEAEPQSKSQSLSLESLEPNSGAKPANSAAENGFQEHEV
Kind of series: luciferase assay system (SRE luciferase reporter gene, CV-1 cells expressing GPR39). Type of series: cell-based. The arrangement: expressed in transfected cells; host or cells: CV-1 fibroblast cell line (Korea Cell Line Bank), adenoviral transduction at 50 MOI. Background: In a reporter assay the amount or activity of a reporter protein is the signal.

Series [2] addresses T2, GPR39 (G protein coupled receptor 39) (UniProt O43194 1-453, limits assumed).
T2 sequence (looked up): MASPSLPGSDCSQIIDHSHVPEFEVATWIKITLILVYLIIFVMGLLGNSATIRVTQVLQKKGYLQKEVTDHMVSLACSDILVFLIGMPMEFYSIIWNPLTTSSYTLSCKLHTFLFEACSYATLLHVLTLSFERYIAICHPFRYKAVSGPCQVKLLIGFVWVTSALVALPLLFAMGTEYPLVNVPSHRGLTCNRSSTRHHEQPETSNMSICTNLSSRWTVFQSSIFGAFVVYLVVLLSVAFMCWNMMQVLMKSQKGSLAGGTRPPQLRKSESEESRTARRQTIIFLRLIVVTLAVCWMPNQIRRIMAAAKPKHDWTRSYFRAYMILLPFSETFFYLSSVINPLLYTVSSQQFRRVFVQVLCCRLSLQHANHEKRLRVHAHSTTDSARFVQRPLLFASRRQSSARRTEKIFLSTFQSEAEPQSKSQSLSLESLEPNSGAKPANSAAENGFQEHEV
As to the kind of experiment: cell-based or functional assay.

The target of series [3] is T3, human GPR39 (human, UniProt O43194 1-453).
T3 sequence (looked up): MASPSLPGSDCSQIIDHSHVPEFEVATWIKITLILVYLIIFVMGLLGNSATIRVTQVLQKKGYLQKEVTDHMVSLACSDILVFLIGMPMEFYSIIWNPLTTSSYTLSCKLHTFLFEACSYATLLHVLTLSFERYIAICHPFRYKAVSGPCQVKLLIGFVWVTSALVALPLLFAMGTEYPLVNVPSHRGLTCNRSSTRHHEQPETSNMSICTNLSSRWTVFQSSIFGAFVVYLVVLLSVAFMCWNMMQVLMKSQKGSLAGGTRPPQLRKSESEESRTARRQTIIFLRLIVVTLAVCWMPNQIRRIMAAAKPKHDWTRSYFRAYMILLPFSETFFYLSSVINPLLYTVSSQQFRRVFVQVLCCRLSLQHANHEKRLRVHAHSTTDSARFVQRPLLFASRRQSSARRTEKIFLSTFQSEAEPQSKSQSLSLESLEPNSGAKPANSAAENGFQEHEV
Kind of series: cell-based or functional assay.

The target in series [4] is T2, GPR39 (G protein coupled receptor 39). As to the kind of experiment: cell-based or functional assay. The source holds these as a separate data set.

`CCCCCCCC(=O)NCCCC[C@H](NC(=O)[C@@H](N)Cc1cn(C(c2ccccc2)(c2ccccc2)c2ccccc2)cn1)C(=O)N[C@@H](Cc1ccccc1)C(=O)N[C@@H](Cc1ccc(O)cc1)C(=O)N[C@@H](CO)C(=O)N[C@@H](Cc1c[nH]cn1)C(=O)N[C@@H](CCC(N)=O)C(=O)N[C@@H](CCC(N)=O)C(=O)N[C@@H](C)C(=O)N[C@@H](CCCNC(=N)N)C(=O)N[C@@H](Cc1ccccc1)C(N)=O` [HKFY-40, (S)-2-((2S,5S,8S,11S,14S)-2-((1H-imidazol-4-yl)methyl)-14-((S)-2-amino-3-(1-trityl-1H-imidazol-4-yl)propanamido)-11-benzyl-8-(4-hydroxybenzyl)-5-(hydroxymethyl)-4,7,10,13,20-pentaoxo-3,6,9,12,19-pentaazaheptacosanamido)-N1-((S)-5-amino-1-(((S)-1-(((S)-1-(((S)-1-amino-1-oxo-3-phenylpropan-2-yl)amino)-5-guanidino-1-oxopentan-2-yl)amino)-1-oxopropan-2-yl)amino)-1,5-dioxopentan-2-yl)pentanediamide] (H-[His(Trt)]K(Octanoyl)FYSHQQARF-NH2): in series [1], the “ECmax (−fold induction over basal)” value was 13.4 ± 0.02 fold induction over basal. Still for that read-out and setting: for `CCCCCCCC(=O)NCCCC[C@H](NC(=O)[C@@H](N)Cc1cn(C(c2ccccc2)(c2ccccc2)c2ccccc2)cn1)C(=O)N[C@H](Cc1ccc(C(F)(F)F)cc1)C(=O)N[C@@H](Cc1ccc(O)cc1)C(=O)O` [HKFY-76, ((R)-2-((S)-2-((S)-2-amino-3-(1-trityl-1H-imidazol-4-yl)propanamido)-6-octanamidohexanamido)-3-(4-(trifluoromethyl)phenyl)propanoyl)-L-tyrosine] (H-[His(Trt)]K(Octanoyl)[dPhe(4-CF3)]Y-OH) the value was 14.2 ± 3.75 fold induction over basal. The same measure, in the same setting: with `CCCCCCCC(=O)NCCCC[C@H](NC(=O)[C@@H](N)Cc1cn(C(c2ccccc2)c2ccccc2)cn1)C(=O)N[C@H](Cc1ccc(C)cc1)C(=O)N[C@@H](Cc1ccc(O)c(N)c1)C(=O)O` [HKFY-70, (S)-2-((R)-2-((S)-2-((S)-2-amino-3-(1-benzhydryl-1H-imidazol-4-yl)propanamido)-6-octanamidohexanamido)-3-(p-tolyl)propanamido)-3-(3-amino-4-hydroxyphenyl)propanoic acid] (H-[His(τ-CHPh2)]K(Octanoyl)[dPhe(4-Me)][Tyr(3-NH2)]-OH) the figure was 10.1 ± 1.6 fold induction over basal; with `CCCCCCCC(=O)NCCCC[C@H](NC(=O)[C@H](CO)NC(=O)CNC(=O)[C@@H](N)Cc1cn(C(c2ccccc2)(c2ccccc2)c2ccccc2)cn1)C(=O)N[C@@H](Cc1ccccc1)C(=O)N[C@@H](Cc1ccc(O)cc1)C(=O)O` [HKFY-53, N6-octanoyl-N2-(Nt-trityl-L-histidylglycyl-L-seryl)-L-lysyl-L-phenylalanyl-L-tyrosine] (H-[His(Trt)]GSK(Octanoyl)FY-OH), 8 ± 2.12 fold induction over basal; with `CCCCCCCC(=O)NCCCC[C@H](NC(=O)[C@@H](N)Cc1cn(C(c2ccccc2)(c2ccccc2)c2ccccc2)cn1)C(=O)N[C@@H](Cc1ccccc1)C(=O)N[C@@H](Cc1c[nH]c2ccccc12)C(=O)O` [HKFY-46, N6-octanoyl-N2-(Nt-trityl-L-histidyl)-L-lysyl-L-phenylalanyl-L-tryptophan] (H-[His(Trt)]K(Octanoyl)FW-OH), 20 ± 0.28 fold induction over basal. On to `CCCCCCCC(=O)NCCCC[C@H](NC(=O)[C@@H](N)Cc1cn(C(c2ccccc2)c2ccccc2)cn1)C(=O)N[C@H](Cc1ccc(C)cc1)C(=O)N[C@@H](Cc1c(C)cc(O)cc1C)C(=O)O` [HKFY-36, (S)-2-((R)-2-((S)-2-((S)-2-amino-3-(1-benzhydryl-1H-imidazol-4-yl)propanamido)-6-octanamidohexanamido)-3-(p-tolyl)propanamido)-3-(4-hydroxy-2,6-dimethylphenyl)propanoic acid] (H-[His(τ-CHPh2)]K(Octanoyl)[dPhe(4-Me)][Dmt]-OH), for which the “ECmax (−fold induction over basal)” value in series [1] (CV-1 cells, GPR39 and SRE luciferase adenovirus, 6 hours treatment) is 9.9 ± 0.28 fold induction over basal.

Regarding `CCCCCCCC(=O)NCCCC[C@H](NC(=O)[C@@H](N)Cc1cn(C(c2ccccc2)(c2ccccc2)c2ccccc2)cn1)C(=O)N[C@@H](Cc1ccccc1)C(=O)N[C@@H](Cc1ccc(O)cc1)C(=O)N[C@@H](CCC(N)=O)C(=O)N[C@@H](CC(N)=O)C(=O)N[C@@H](CCC(N)=O)C(=O)N[C@@H](C)C(=O)N[C@@H](CCCNC(=N)N)C(=O)N[C@@H](Cc1ccccc1)C(N)=O` [HKFY-43, (S)-N1-((S)-1-(((S)-1-(((S)-1-amino-1-oxo-3-phenylpropan-2-yl)amino)-5-guanidino-1-oxopentan-2-yl)amino)-1-oxopropan-2-yl)-2-((2S,5S,8S,11S,14S)-2-(2-amino-2-oxoethyl)-14-((S)-2-amino-3-(1-trityl-1H-imidazol-4-yl)propanamido)-5-(3-amino-3-oxopropyl)-11-benzyl-8-(4-hydroxybenzyl)-4,7,10,13,20-pentaoxo-3,6,9,12,19-pentaazaheptacosanamido)pentanediamide] (H-[His(Trt)]K(Octanoyl)FYQNQARF-NH2), the “ECmax (−fold induction over basal)” value in series [1] is 12.1 ± 0.02 fold induction over basal. Same read-out and setting: for `CCCCCCCC(=O)NCCCC[C@H](NC(=O)[C@@H](N)Cc1cn(C(c2ccccc2)(c2ccccc2)c2ccccc2)cn1)C(=O)N[C@@H](Cc1ccccc1)C(=O)N[C@@H](CO)C(=O)O` [HKFY-50, N6-octanoyl-N2-(Nt-trityl-L-histidyl)-L-lysyl-L-phenylalanyl-L-serine] (H-[His(Trt)]K(Octanoyl)FS-OH) the value was 16.2 ± 1.5 fold induction over basal; for `CCCCCCCC(=O)NCCCC[C@H](NC(=O)[C@@H](N)Cc1cn(C(c2ccccc2)(c2ccccc2)c2ccccc2)cn1)C(=O)N[C@@H](Cc1ccccc1)C(=O)N[C@@H](Cc1ccc(O)cc1)C(=O)O` [HKFY-1, N6-octanoyl-N2-(Nt-trityl-L-histidyl)-L-lysyl-L-phenylalanyl-L-tyrosine] (H-[His(Trt)]K(Octanoyl)FY-OH), 20.51 ± 0.57 fold induction over basal; for `CCCCCCCC(=O)NCCCC[C@@H](NC(=O)[C@@H](N)Cc1cn(C(c2ccccc2)(c2ccccc2)c2ccccc2)cn1)C(=O)N[C@H](Cc1ccc(Cl)cc1)C(=O)N[C@@H](Cc1ccc(O)cc1)C(=O)O` [HKFY-16, ((R)-2-((R)-2-((S)-2-amino-3-(1-trityl-1H-imidazol-4-yl)propanamido)-6-octanamidohexanamido)-3-(4-chlorophenyl)propanoyl)-L-tyrosine] (H-[His(Trt)][dK](Octanoyl)[dPhe(4-Cl)]Y-OH), 27.9 ± 3.4 fold induction over basal.

For the molecule `CCCCCCCC(=O)NCCCC[C@H](NC(=O)[C@@H](N)Cc1cn(C(c2ccccc2)(c2ccccc2)c2ccccc2)cn1)C(=O)N[C@@H](CC(C)C)C(=O)N[C@@H](Cc1ccc(O)cc1)C(=O)O` [HKFY-51, N6-octanoyl-N2-(Nt-trityl-L-histidyl)-L-lysyl-L-leucyl-L-tyrosine] (H-[His(Trt)]K(Octanoyl)LY-OH), the “ECmax (−fold induction over basal)” value in series [1] was determined as 14.4 ± 1.9 fold induction over basal. As to `CCCCCCCC(=O)NCCCC[C@H](NC(=O)[C@@H](N)Cc1cn(C(c2ccccc2)(c2ccccc2)c2ccccc2)cn1)C(=O)N[C@@H](Cc1ccc(O)cc1)C(=O)N[C@@H](Cc1ccccc1)C(=O)O` [HKFY-47, N6-octanoyl-N2-(Nt-trityl-L-histidyl)-L-lysyl-L-tyrosyl-L-phenylalanine] (H-[His(Trt)]K(Octanoyl)YF-OH), the “ECmax (−fold induction over basal)” value in series [1] was found to be 13 ± 1.7 fold induction over basal.

B1: HKFY-34 (peptide)
peptide: H(Benzhydryl)K(Octanoyl)[dPhe(4-Me)]Y
B1: in series [2], the “EC50; Reporter gene assay” value was 6.7 nM and the “ECmax; Reporter gene assay” value is 22.4 -fold induction over basal. Also, in series [3], the “EC50; Ca2+ influx assay” value was 2.7 nM and the “ECmax; Ca2+ influx assay” value is 2.4 -fold induction over basal. In series [4], the “EC50; SRE-luciferase reporter” value was found to be 7 nM and the “ECmax; SRE-luciferase reporter” value is 22.4 -fold induction over basal.
